This note sets out measurements from paper PMC6364417, “Kinase inhibitor library screening identifies synergistic drug combinations effective in sensitive and resistant melanoma cells” (Journal of Experimental & Clinical Cancer Research : CR, 2019).

Holding throughout (assay): Kinase inhibitor library screening, PrestoBlue cell viability, 1 or 10 μM, 72 h
One test concerns 501Mel cells (parental). Particulars: 72 h. The procedure, abridged:
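PrestoBlue viability readout after 72 h exposure to each inhibitor at 1 or 10 μM, reported relative to untreated cells as % viability. Lines tested: sensitive parental plus derivatives resistant to Vemurafenib (XP) or Dabrafenib (GP), each run at least in duplicate.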

The subject of test [1] is 501Mel-GP cells (Dabrafenib-resistant). Particulars: 72 h.
In test [2] the test system is 501Mel-XP cells (Vemurafenib-resistant). Particulars: 72 h.
Another test relates to A375 cells (parental).
In test [3] the test system is A375-GP cells (Dabrafenib-resistant).
Test [4] has as its system A375-XP cells (Vemurafenib-resistant).
The subject of the next test is IGR37 cells (parental).
Test [5] has as its system IGR37-GP cells (Dabrafenib-resistant).
The subject of test [6] is IGR37-XP cells (Vemurafenib-resistant).

As for `CCN(CC)CCCCNc1ncc2cc(-c3cc(OC)cc(OC)c3)c(NC(=O)NC(C)(C)C)nc2n1` [PD173074], the viability at 1 µM in the test with 501Mel cells (parental) (Homo sapiens, read-out: cell viability, 501Mel Parental, 1μΜ) was found to be 103%; in test [1] (Homo sapiens, read-out: cell viability, 501Mel GP, 1μΜ) it was 106%; in test [2] (Homo sapiens, read-out: cell viability, 501Mel XP, 1μΜ), 97.2%; in the test on A375 cells (parental) (Homo sapiens, A-375, 72 h, read-out: cell viability, A375 Parental, 1μΜ), 105%; in test [3] (Homo sapiens, A-375, 72 h, read-out: cell viability, A375 GP, 1μΜ), 98.2%; in [4] (Homo sapiens, A-375, 72 h, read-out: cell viability, A375 XP, 1μΜ), 100%. Also, the viability at 1 µM in the test with IGR37 cells (parental) (Homo sapiens, IGR-37, 72 h, read-out: cell viability, IGR37 Parental, 1μΜ) came out at 99.8%; in [5] (Homo sapiens, IGR-37, 72 h, read-out: cell viability, IGR37 GP, 1μΜ), 91.4%; in test [6] (Homo sapiens, IGR-37, 72 h, read-out: cell viability, IGR37 XP, 1μΜ) it was 92.2%. The viability at 10 µM was 11.8% in the test with 501Mel cells (parental) (Homo sapiens, read-out: cell viability, 501Mel Parental, 10μΜ); 13.2% in test [1] (Homo sapiens, read-out: cell viability, 501Mel GP, 10μΜ); -0.025% in test [2] (Homo sapiens, read-out: cell viability, 501Mel XP, 10μΜ); 70.1% in the test on A375 cells (parental) (Homo sapiens, A-375, 72 h, read-out: cell viability, A375 Parental, 10μΜ); 62.8% in test [3] (Homo sapiens, A-375, 72 h, read-out: cell viability, A375 GP, 10μΜ); 72% in [4] (Homo sapiens, A-375, 72 h, read-out: cell viability, A375 XP, 10μΜ). The viability at 10 µM in the test with IGR37 cells (parental) (Homo sapiens, IGR-37, 72 h, read-out: cell viability, IGR37 Parental, 10μΜ) was 75.6%; in [5] (Homo sapiens, IGR-37, 72 h, read-out: cell viability, IGR37 GP, 10μΜ), 50%; in [6] (Homo sapiens, IGR-37, 72 h, read-out: cell viability, IGR37 XP, 10μΜ), 14.7%.
With `Cc1ncc(-c2ccnc(Nc3ccc(S(C)(=O)=O)cc3)n2)n1C(C)C` [AZD5438], the “cell viability (kinase inhibitor library screening)” value is 102.8% in the test with 501Mel cells (parental) (501Mel Parental, 1μΜ); 103.6% in the test with 501Mel cells (parental) (501Mel Parental, 10μΜ); 106.0% in [1] (501Mel GP, 1μΜ); 93.9% in test [1] (501Mel GP, 10μΜ); 99.0% in [2] (501Mel XP, 1μΜ); 80.3% in [2] (501Mel XP, 10μΜ). Besides, the “cell viability (kinase inhibitor library screening)” value with A375 cells (parental) (A375 Parental, 10μΜ, 72 h) is reported as 103.7%; in the test with A375 cells (parental) (A375 Parental, 1μΜ, 72 h), 106.4%; in test [3] (A375 GP, 1μΜ, 72 h), 99.9%; in test [3] (A375 GP, 10μΜ, 72 h) it was 102.9%; in test [4] (A375 XP, 1μΜ, 72 h) it was 105.8%; in test [4] (A375 XP, 10μΜ, 72 h), 110.3%. Besides, the “cell viability (kinase inhibitor library screening)” value is given as 103.3% in the test on IGR37 cells (parental) (IGR37 Parental, 1μΜ, 72 h); 110.8% with IGR37 cells (parental) (IGR37 Parental, 10μΜ, 72 h); 99.3% in [5] (IGR37 GP, 1μΜ, 72 h); 97.8% in [5] (IGR37 GP, 10μΜ, 72 h); 106.4% in test [6] (IGR37 XP, 1μΜ, 72 h); 82.4% in [6] (IGR37 XP, 10μΜ, 72 h).
`CCCS(=O)(=O)Nc1ccc(F)c(C(=O)c2c[nH]c3ncc(-c4ccc(Cl)cc4)cc23)c1F` [Vemurafenib (PLX4032)]: in the test on 501Mel cells (parental) (501Mel Parental, 1μΜ, in %), the “Cell viability in kinase inhibitor library screening, 501Mel Parental, 1μΜ” value is given as 65.5. In the test with 501Mel cells (parental) (501Mel Parental, 10μΜ, in %), the “Cell viability in kinase inhibitor library screening, 501Mel Parental, 10μΜ” value came out at 61.7. The “Cell viability in kinase inhibitor library screening, 501Mel GP, 1μΜ” value in [1] (501Mel GP, 1μΜ, in %) is on record as 104.7. In addition, the “Cell viability in kinase inhibitor library screening, 501Mel GP, 10μΜ” value in test [1] (501Mel GP, 10μΜ, in %) worked out at 81.3. In [2] (501Mel XP, 1μΜ, in %), the “Cell viability in kinase inhibitor library screening, 501Mel XP, 1μΜ” value was 94.9. Besides, the “Cell viability in kinase inhibitor library screening, 501Mel XP, 10μΜ” value in [2] (501Mel XP, 10μΜ, in %) was 68.0. Also, the “Cell viability in kinase inhibitor library screening, A375 Parental, 10μΜ” value in the test with A375 cells (parental) (A375 Parental, 10μΜ, 72 h) worked out at 14.6. Moreover, in the test on A375 cells (parental) (A375 Parental, 1μΜ, 72 h), the “Cell viability in kinase inhibitor library screening, A375 Parental, 1μΜ” value came to 28.6. Besides, the “Cell viability in kinase inhibitor library screening, A375 GP, 1μΜ” value in test [3] (A375 GP, 1μΜ, 72 h) is 92.1. The “Cell viability in kinase inhibitor library screening, A375 GP, 10μΜ” value in test [3] (A375 GP, 10μΜ, 72 h) was found to be 68.9. In addition, the “Cell viability in kinase inhibitor library screening, A375 XP, 1μΜ” value in test [4] (A375 XP, 1μΜ, 72 h) turned out to be 98.7. Also, in test [4] (A375 XP, 10μΜ, 72 h), the “Cell viability in kinase inhibitor library screening, A375 XP, 10μΜ” value is on record as 76.6. The “Cell viability in kinase inhibitor library screening, IGR37 Parental, 1μΜ” value in the test on IGR37 cells (parental) (IGR37 Parental, 1μΜ, 72 h, in %) is 43.2. The “Cell viability in kinase inhibitor library screening, IGR37 Parental, 10μΜ” value in the test on IGR37 cells (parental) (IGR37 Parental, 10μΜ, 72 h, in %) stood at 34.4. Also, the Cell viability in kinase inhibitor library screening, IGR37 GP, 10μΜ in test [5] (IGR37 GP, 10μΜ, 72 h) amounted to 88.3%. In addition, the “Cell viability in kinase inhibitor library screening, IGR37 GP, 1μΜ” value in test [5] (IGR37 GP, 1μΜ, 72 h, in %) worked out at 94.0. The Cell viability in kinase inhibitor library screening, IGR37 XP, 10μΜ in [6] (IGR37 XP, 10μΜ, 72 h) amounted to 67.9%. Moreover, the “Cell viability in kinase inhibitor library screening, IGR37 XP, 1μΜ” value in test [6] (IGR37 XP, 1μΜ, 72 h, in %) stood at 97.0.

One may read the viability as a read-out of living cells in per cent, often relative to untreated cells.
